{"source": "patent US20050148630A1", "about": "“Methods of preventing and treating non-opioid induced gastrointestinal dysfunction” (priority 2003, published 2005)", "key": {"healthy volunteers": {"test_system": "healthy volunteers", "assay": "Ascending dose level safety study (Phase I) of alvimopan, TID for 4 days", "type": "in vivo", "from_the_text": "This was an ascending dose level safety study (Phase I) intended to determine the frequency and severity of adverse events (AEs) and to estimate the maximum tolerated dose of alvimopan. Subjects were screened to ensure their status as healthy volunteers. They were only enrolled if they had no clinically significant abnormalities on history, physical, or laboratory examinations. Post study physical examination and laboratory tests, including serum chemistries and complete blood count, were performed.\nAlvimopan or placebo was administered TID for 4 days.\nOne subject in each dose group was randomly assigned to receive placebo that was identical in appearance to the active study medication.\nForty-four subjects were randomized for treatment. One subject at each dose level received placebo (N=5); the rest received alvimopan. […] The incidence of gastrointestinal AEs increased with increasing dose of alvimopan. One or more incidence of mild or moderate “abdominal pain” was reported by 83-100% of subjects receiving 18 or 54 mg daily doses (6 or 18 mg TID), but was infrequent at lower doses (range 11-18%). One or more incidence of diarrhea was reported by 83% of subjects receiving 54 mg daily doses (18 mg TID), but was infrequent at lower doses (range 9-22%). One or more incidence of flatulence was reported by 50-78% of subjects receiving 18 or 54 mg daily doses (6 or 18 mg TID), but was less frequent at lower doses (range 18-33%). One subject receiving the highest dose, 54 mg/day (18 mg TID), withdrew during the second day of dosing due to adverse events of abdominal pain, nausea, and diarrhea."}, "[1]": {"test_system": "subjects with functional constipation", "assay": "Bowel movement frequency and symptoms by patient self-report diary card, cross-over study", "type": "in vivo, human", "from_the_text": "(§1) Subjects underwent measurement of their whole bowel transit (radio-opaque markers) and oral-cecal transit (hydrogen-breath test) prior to receiving the first treatment (baseline) and at the end of each treatment period. During the screening and treatment periods, subjects recorded the time of each bowel movement (defecatory frequency), an assessment of each stool's consistency (using the Bristol Stool Form Scale), and an overall rating of their satisfaction with their bowel movements over each period (1-5 scale: 1=much worse than usual, 2=worse than usual, 3=no change, 4=better than usual, 5=much better than usual). Stool output per 7-day period was calculated from the weight of all stools collected during each treatment period (stools collected over the 7-day assessment period).\nEach treatment period comprised seven days of dosing (oral alvimopan 3 mg or matching placebo, given at 8:00 AM and 8:00 PM). For each defecation, subjects recorded the time, date, and stool form (Bristol Stool Form Criteria) (Heaton, et al., Gut, 1991, 73-79). Subjects rated their overall satisfaction with their bowel movements for the treatment period on Day 7.\nFor Day 1 of each treatment period, the following procedures were conducted in the clinic prior to the morning dosing: a urine drug screen, and a urine/serum pregnancy test (when applicable), semi-supine (i.e., 45-degree angle, pillow, etc.) blood pressure and pulse rate measurements and recording of baseline signs and symptoms. All subjects received their first dose of alvimopan 3 mg or placebo after a light breakfast in the clinic at approximately 8 AM in the morning and according to the randomization schedule. Each dose of alvimopan or placebo was taken with 240 ml of still room-temperature water at each dosing occasion. Subjects were then dispensed the study drug to be taken until the evening dose on Day 5, as well as the Stizmark capsules containing the radio-opaque markers and discharged. Subjects were admitted to the study unit on the evening of Day 5 until completion of the transit studies on Day 7. They were asked to complete a medication diary with the times of morning and evening dosing as an outpatient, as well as any symptoms they experienced at home. Subjects collected all stools from Days 1 to 7. Subjects recorded the time, date, and stool form (Bristol Stool Form Criteria) (Heaton, et al., Gut, 1991, 73-79) for each defecation. Subjects rated their overall satisfaction with their bowel movements for the treatment period on Day 7.\n(§2) This single-center, randomized, placebo-controlled, crossover trial was designed to determine the effect of alvimopan on bowel transit of patients with chronic constipation. Whole bowel transit (WBT), bowel movement frequency as total bowel movement (BM), and spontaneous complete BM (SCBM), BM symptoms of straining, discomfort, and satisfaction were compared between placebo and alvimopan (3 mg BID) for 7 days. Safety and tolerability were assessed.\n(§3) The following were performed for each test arm: WBT estimated by a weighted sum of retained radio-opaque markers (based on number and location in the colon on single x-ray 48 hours post marker ingestion) and mean colonic transit time (MCTT) calculated by the method of Metcalf et al., Gastroenterology, 1987, 92: 40-47; and bowel movement frequency (BMF) and symptoms by patient self-report diary card."}, "Solubility in water": {"assay": "Solubility in water", "type": "physicochemical", "conditions": "except at low or high pH conditions"}, "[2]": {"test_system": "subjects with functional constipation", "assay": "Oral-cecal transit time, lactulose hydrogen breath test, cross-over study", "type": "in vivo, human", "conditions": "3 mg BID, Day 7, lactulose hydrogen breath test", "from_the_text": "as §1\nThe transit time for mouth to cecum, a reflection of small bowel transit, was measured utilizing the hydrogen breath test. […] The time between ingestion of lactulose (10 g) and the sustained increase in hydrogen in the breath (hydrogen concentration in end-expiratory breath samples as measured by gas chromatography) represents the oral-cecal transit time (OCTT). […] Breath samples were measured every 15 minutes following ingestion of the lactulose. Transit time was determined by the first time of three consecutive samples in which there was at least a doubling of the baseline breath hydrogen concentration. […]"}, "[3]": {"test_system": "subjects with functional constipation", "assay": "Whole bowel transit (radio-opaque markers) and mean colonic transit time, placebo-controlled cross-over study", "type": "in vivo, human", "conditions": "3 mg BID for 7 days", "description": "A single-center, placebo-controlled, randomized, double-blind, balanced two period cross-over study of the effect of alvimopan on GI transit in subjects with functional constipation was carried out.\nSubjects (n=24) meeting the initial screening criteria for functional constipation by history, and who had 3 or fewer stools during a 7-day screening period, were randomly assigned to receive initially either orally-administered alvimopan, 3 mg twice daily for 7 days or matching placebo. Following a two- to four-week washout period, subjects received the opposite treatment for a 7-day period.\nas §1\nWhole bowel transit was determined by using a modification of the radio-opaque marker method developed by Metcalf et al., Gastroenterology, 1987, 92: 40-47. This method is reproducible and correlates well with scintigraphic methods of measuring colonic transit (Degen, et al., Gut, 1996, 39: 299-305). Subjects ingested, at 8:00 AM on the mornings of Days 3, 4, 5, one capsule containing 24 radio-opaque markers (Sitzmark; Konsyl Pharmaceuticals, Fort Worth, Tex.). Stools from Days 3 to 7 were collected and examined by x-ray for the presence of the radio-opaque markers. […] Weights were assigned to the six locations in the colon and a weighted average of the number of radio-opaque markers in the colon was calculated. […]\nThis single-center, randomized, placebo-controlled, crossover trial was designed to determine the effect of alvimopan on bowel transit of patients with chronic constipation. […] Safety and tolerability were assessed.\nas §3"}, "[4]": {"test_system": "subjects with functional constipation", "assay": "Safety and tolerability in the cross-over study", "type": "in vivo, human", "conditions": "3 mg BID for 7 days", "from_the_text": "Subjects were given a physical examination, vital signs, and blood and urine samples obtained for safety laboratory studies at the conclusion of their last treatment period. Any abnormal findings were followed until resolution.\nas §2"}, "[5]": {"conditions": "18 or 54 mg daily doses (6 or 18 mg TID)"}}, "data": [{"smiles": "C[C@H]1CN(C[C@H](Cc2ccccc2)C(=O)NCC(=O)O)CC[C@@]1(C)c1cccc(O)c1", "note": "[alvimopan, [[(2S)-2-[[(3R,4R)-4-(3-hydroxyphenyl)-3,4-dimethylpiperidin-1-yl]methyl]-3-phenylpropanoyl]amino]acetic acid dihydrate]", "values": [{"measurement": "subjects reporting one or more incidence of diarrhea", "setting": "healthy volunteers; 54 mg daily doses (18 mg TID)", "value": 83, "unit": "%"}, {"measurement": "subjects withdrawn due to adverse events of abdominal pain, nausea, and diarrhea", "setting": "healthy volunteers; 54 mg/day (18 mg TID), second day of dosing", "value": "One"}, {"measurement": "subjects reporting one or more incidence of flatulence", "setting": "healthy volunteers; [5]", "value": "50-78%"}, {"measurement": "subjects reporting one or more incidence of mild or moderate abdominal pain", "setting": "healthy volunteers; [5]", "value": "83-100%"}, {"measurement": "tolerability", "setting": "healthy volunteers; doses up to 54 mg daily (18 mg TID) for 4 days", "value": "generally well tolerated"}, {"measurement": "subjects reporting one or more incidence of diarrhea", "setting": "healthy volunteers; lower doses", "value": "9-22%"}, {"measurement": "subjects reporting one or more incidence of flatulence", "setting": "healthy volunteers; lower doses", "value": "18-33%"}, {"measurement": "subjects reporting one or more incidence of mild or moderate abdominal pain", "setting": "healthy volunteers; lower doses", "value": "11-18%"}, {"measurement": "BM consistency compared to placebo", "setting": "[1]; 3 mg BID for 7 days", "value": "improved"}, {"measurement": "BM discomfort compared to placebo", "setting": "[1]; 3 mg BID for 7 days", "value": "improved"}, {"measurement": "BM satisfaction compared to placebo", "setting": "[1]; 3 mg BID for 7 days", "value": "improved"}, {"measurement": "BM straining compared to placebo", "setting": "[1]; 3 mg BID for 7 days", "value": "improved"}, {"measurement": "mean increase above baseline for SCBM", "setting": "[1]; 3 mg BID over 7 days, placebo 0.3", "value": 0.6}, {"measurement": "mean increase above baseline for BMF", "setting": "[1]; 3 mg BID over 7 days, placebo 0.5", "value": 1.0}, {"measurement": "mean bowel movement Bristol Stool Form Scale score", "setting": "[1]; FIG. 2, 3 mg BID for 7 days", "value": "increased"}, {"measurement": "% of bowel movements with no/mild straining or discomfort", "setting": "[1]; FIG. 3, 3 mg BID for 7 days", "value": "increased"}, {"measurement": "solubility in water", "setting": "Solubility in water", "value": "low solubility"}, {"measurement": "OCTT v. placebo", "setting": "[2]", "value": "not changed"}, {"measurement": "reduction in MCTT versus placebo", "setting": "[3]", "value": 19, "unit": "%"}, {"measurement": "reduction in weighted sum of retained radio-opaque markers (faster whole bowel transit) versus placebo", "setting": "[3]; p<0.049", "value": 32, "unit": "%"}, {"measurement": "mean colonic transit time (MCTT)", "setting": "[3]; placebo 69±5", "value": "56 ± 6", "unit": "h"}, {"measurement": "WBT, weighted sum of retained radio-opaque markers", "setting": "[3]; placebo 160±17", "value": "109±17", "unit": "WSM"}, {"measurement": "incidence of GI-related adverse effects versus placebo arm", "setting": "[4]", "value": "slightly higher"}, {"measurement": "severity of adverse events", "setting": "[4]; both arms", "value": "generally mild"}, {"measurement": "premature discontinuation due to an adverse effect", "setting": "[4]; either treatment arm", "value": "No subjects prematurely discontinued"}]}]}
